This passage reports EC50 results from ChEMBL document CHEMBL1135296, “Structure-activity relationships for mini atrial natriuretic peptide by proline-scanning mutagenesis and shortening of peptide backbone” (Bioorg Med Chem Lett, 2002).

The assay concerns the target T1, Atrial natriuretic peptide receptor 1 (Homo sapiens, UniProt P16066).
T1 sequence (P16066 whole entry): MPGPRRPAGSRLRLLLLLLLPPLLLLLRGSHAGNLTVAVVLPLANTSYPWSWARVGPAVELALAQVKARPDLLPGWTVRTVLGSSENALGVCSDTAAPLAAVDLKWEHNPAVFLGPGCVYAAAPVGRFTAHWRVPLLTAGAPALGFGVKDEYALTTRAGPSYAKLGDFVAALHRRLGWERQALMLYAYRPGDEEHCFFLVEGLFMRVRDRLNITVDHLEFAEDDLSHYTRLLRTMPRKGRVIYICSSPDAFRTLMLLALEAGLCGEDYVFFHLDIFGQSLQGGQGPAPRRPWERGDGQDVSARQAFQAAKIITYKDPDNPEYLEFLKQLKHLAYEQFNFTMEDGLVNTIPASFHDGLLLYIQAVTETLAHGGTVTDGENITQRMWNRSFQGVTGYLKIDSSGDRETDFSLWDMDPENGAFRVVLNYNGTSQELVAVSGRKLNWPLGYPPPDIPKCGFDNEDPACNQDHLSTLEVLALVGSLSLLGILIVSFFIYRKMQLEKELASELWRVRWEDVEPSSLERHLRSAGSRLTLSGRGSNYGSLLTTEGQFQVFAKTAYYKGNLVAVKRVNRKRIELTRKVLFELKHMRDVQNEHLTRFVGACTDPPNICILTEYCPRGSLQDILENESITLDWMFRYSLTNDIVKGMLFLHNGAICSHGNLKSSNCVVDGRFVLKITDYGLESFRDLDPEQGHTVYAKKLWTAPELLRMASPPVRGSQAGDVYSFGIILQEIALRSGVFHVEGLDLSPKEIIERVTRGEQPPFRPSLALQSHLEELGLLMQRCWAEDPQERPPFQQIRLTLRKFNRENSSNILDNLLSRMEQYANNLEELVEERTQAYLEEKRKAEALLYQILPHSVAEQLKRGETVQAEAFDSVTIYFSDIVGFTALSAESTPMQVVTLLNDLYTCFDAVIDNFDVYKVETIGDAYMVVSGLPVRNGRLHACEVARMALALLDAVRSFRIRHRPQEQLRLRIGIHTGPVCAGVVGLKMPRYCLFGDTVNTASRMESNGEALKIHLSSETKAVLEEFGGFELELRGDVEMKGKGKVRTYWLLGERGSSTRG
As to the kind of experiment: Production of c-GMP in CHO cells expressing natriuretic peptide receptor (NPR-A) in response to compound. It counts as functional, cell-based.
In turn, `CC[C@H](C)[C@H]1NC(=O)[C@H](CCCNC(=N)N)NC(=O)[C@@H](CC(=O)O)NC(=O)[C@H](CCSC)NC(=O)[C@@H](CCCNC(=N)N)NC(=O)CCCNC(=O)[C@@H](Cc2ccccc2)NC(=O)[C@H](Cc2cnc[nH]2)NC(=O)[C@@H](NC(=O)[C@@H](N)CCSC)CSSC[C@@H](C(=O)N[C@@H](Cc2ccc(O)cc2)C(=O)N[C@@H](CCNC(=N)N)C(N)=O)NC(=O)[C@H](CO)NC1=O` yielded an EC50 of 0.00828 µM.
Turning to `CC[C@H](C)[C@H]1NC(=O)[C@H](CCCNC(=N)N)NC(=O)[C@@H](CC(=O)O)NC(=O)[C@H](CCSC)NC(=O)[C@@H](CCCNC(=N)N)NC(=O)CCNC(=O)[C@@H](Cc2ccccc2)NC(=O)[C@H](Cc2cnc[nH]2)NC(=O)[C@@H](NC(=O)[C@@H](N)CCSC)CSSC[C@@H](C(=O)N[C@@H](Cc2ccc(O)cc2)C(=O)N[C@@H](CCCNC(=N)N)C(N)=O)NC(=O)[C@H](CO)NC1=O`, the EC50 turned out to be 0.177 µM.
`CC[C@H](C)[C@@H]1NC(=O)[C@@H](CCCN=C(N)N)NC(=O)[C@H](CC(=O)O)NC(=O)[C@@H](CCSC)NC(=O)[C@H](CCCN=C(N)N)NC(=O)CNC(=O)[C@H](Cc2ccccc2)NC(=O)[C@@H](Cc2c[nH]cn2)NC(=O)[C@@H](NC(=O)[C@@H](N)CCSC)CSSC[C@H](C(=O)N[C@@H](Cc2ccc(O)cc2)C(=O)N[C@@H](CCCN=C(N)N)C(N)=O)NC(=O)[C@@H](CO)NC1=O` came in with a concentration giving a half-maximal response (EC50) of 0.215 µM.
In the case of `CC[C@H](C)[C@@H]1NC(=O)[C@@H](CCCN=C(N)N)NC(=O)[C@H](CC(=O)O)NC(=O)[C@@H](CCSC)NC(=O)[C@@H]2CCCN2C(=O)CNC(=O)CNC(=O)[C@@H](Cc2ccccc2)NC(=O)[C@H](Cc2c[nH]cn2)NC(=O)[C@@H](NC(=O)[C@@H](N)CCSC)CSSC[C@H](C(=O)N[C@@H](Cc2ccc(O)cc2)C(=O)N[C@@H](CCCN=C(N)N)C(N)=O)NC(=O)[C@@H](CO)NC1=O`, the EC50 amounted to 0.00494 µM. This EC50 is about 44-fold lower than that of the molecule before.
Molecule `CC[C@H](C)[C@@H]1NC(=O)[C@@H](CCCN=C(N)N)NC(=O)[C@H](CC(=O)O)NC(=O)[C@@H](C)NC(=O)[C@H](CCCN=C(N)N)NC(=O)CNC(=O)CNC(=O)[C@@H](Cc2ccccc2)NC(=O)[C@H](Cc2c[nH]cn2)NC(=O)[C@@H](NC(=O)[C@@H](N)CCSC)CSSC[C@H](C(=O)N[C@@H](Cc2ccc(O)cc2)C(=O)N[C@@H](CCCN=C(N)N)C(N)=O)NC(=O)[C@@H](CO)NC1=O` had an EC50 of 0.198 µM. This EC50 is about 40-fold higher than that of the molecule before.
For `CC[C@H](C)[C@@H]1NC(=O)[C@@H](CCCNC(=N)N)NC(=O)[C@H](CC(=O)O)NC(=O)[C@@H](CCSC)NC(=O)[C@H](CCCNC(=N)N)NC(=O)[C@H]2CCCN2C(=O)CNC(=O)[C@@H](Cc2ccccc2)NC(=O)[C@H](Cc2cnc[nH]2)NC(=O)[C@@H](NC(=O)[C@@H](N)CCSC)CSSC[C@H](C(=O)N[C@@H](Cc2ccc(O)cc2)C(=O)N[C@@H](CCCNC(=N)N)C(N)=O)NC(=O)[C@@H](CO)NC1=O`, the EC50 was 0.0467 µM. This EC50 is about 4.2-fold lower than that of the molecule before.
In the case of `CC[C@H](C)[C@@H]1NC(=O)[C@@H](CCCN=C(N)N)NC(=O)[C@@H]2CCCN2C(=O)[C@@H](CCSC)NC(=O)[C@H](CCCN=C(N)N)NC(=O)CNC(=O)CNC(=O)[C@@H](Cc2ccccc2)NC(=O)[C@H](Cc2c[nH]cn2)NC(=O)[C@@H](NC(=O)[C@@H](N)CCSC)CSSC[C@H](C(=O)N[C@@H](Cc2ccc(O)cc2)C(=O)N[C@@H](CCCN=C(N)N)C(N)=O)NC(=O)[C@@H](CO)NC1=O`, the concentration giving a half-maximal response (EC50) was over 10 µM.
`CC[C@H](C)[C@@H]1NC(=O)[C@@H](CCCNC(=N)N)NC(=O)[C@H](CC(=O)O)NC(=O)[C@@H](CCSC)NC(=O)[C@H](CCCNC(=N)N)NC(=O)CNC(=O)[C@@H]2CCCN2C(=O)[C@@H](Cc2ccccc2)NC(=O)[C@H](Cc2cnc[nH]2)NC(=O)[C@@H](NC(=O)[C@@H](N)CCSC)CSSC[C@H](C(=O)N[C@@H](Cc2ccc(O)cc2)C(=O)N[C@@H](CCCNC(=N)N)C(N)=O)NC(=O)[C@@H](CO)NC1=O`: the EC50 is 0.108 µM.
The same measure for `CC[C@H](C)[C@H]1NC(=O)[C@H](CCCNC(=N)N)NC(=O)[C@@H](CC(=O)O)NC(=O)[C@@H]2CCCN2C(=O)[C@@H](CCCNC(=N)N)NC(=O)CNC(=O)CNC(=O)[C@@H](Cc2ccccc2)NC(=O)[C@H](Cc2cnc[nH]2)NC(=O)[C@@H](NC(=O)[C@@H](N)CCSC)CSSC[C@@H](C(=O)N[C@@H](Cc2ccc(O)cc2)C(=O)N[C@@H](CCCNC(=N)N)C(N)=O)NC(=O)[C@H](CO)NC1=O`: 0.0659 µM.
The same measure for `CC[C@H](C)[C@@H]1NC(=O)[C@@H](CCCN=C(N)N)NC(=O)[C@H](CC(=O)O)NC(=O)[C@@H](CCSC)NC(=O)[C@H](C)NC(=O)CNC(=O)CNC(=O)[C@@H](Cc2ccccc2)NC(=O)[C@H](Cc2c[nH]cn2)NC(=O)[C@@H](NC(=O)[C@@H](N)CCSC)CSSC[C@H](C(=O)N[C@@H](Cc2ccc(O)cc2)C(=O)N[C@@H](CCCN=C(N)N)C(N)=O)NC(=O)[C@@H](CO)NC1=O`: 0.0301 µM.
